# Laboratory results from patent US20100105655A1, “NOVEL COMPOUNDS 515” (ASTRAZENECA AB, priority 2008, published 2010).
# Target: T1, IGFR kinase (Homo sapiens, UniProt P08069)
# T1 construct: purchased Millipore
# Assay: Enzyme assay (c), IGFR kinase, Caliper LabChip
# Assay type: biochemical
# Details: 30 nM IGFR kinase, 6 uM ATP, 3 uM peptide mix; read-out: IGFR IC50
# T1 sequence (P08069 31-1367): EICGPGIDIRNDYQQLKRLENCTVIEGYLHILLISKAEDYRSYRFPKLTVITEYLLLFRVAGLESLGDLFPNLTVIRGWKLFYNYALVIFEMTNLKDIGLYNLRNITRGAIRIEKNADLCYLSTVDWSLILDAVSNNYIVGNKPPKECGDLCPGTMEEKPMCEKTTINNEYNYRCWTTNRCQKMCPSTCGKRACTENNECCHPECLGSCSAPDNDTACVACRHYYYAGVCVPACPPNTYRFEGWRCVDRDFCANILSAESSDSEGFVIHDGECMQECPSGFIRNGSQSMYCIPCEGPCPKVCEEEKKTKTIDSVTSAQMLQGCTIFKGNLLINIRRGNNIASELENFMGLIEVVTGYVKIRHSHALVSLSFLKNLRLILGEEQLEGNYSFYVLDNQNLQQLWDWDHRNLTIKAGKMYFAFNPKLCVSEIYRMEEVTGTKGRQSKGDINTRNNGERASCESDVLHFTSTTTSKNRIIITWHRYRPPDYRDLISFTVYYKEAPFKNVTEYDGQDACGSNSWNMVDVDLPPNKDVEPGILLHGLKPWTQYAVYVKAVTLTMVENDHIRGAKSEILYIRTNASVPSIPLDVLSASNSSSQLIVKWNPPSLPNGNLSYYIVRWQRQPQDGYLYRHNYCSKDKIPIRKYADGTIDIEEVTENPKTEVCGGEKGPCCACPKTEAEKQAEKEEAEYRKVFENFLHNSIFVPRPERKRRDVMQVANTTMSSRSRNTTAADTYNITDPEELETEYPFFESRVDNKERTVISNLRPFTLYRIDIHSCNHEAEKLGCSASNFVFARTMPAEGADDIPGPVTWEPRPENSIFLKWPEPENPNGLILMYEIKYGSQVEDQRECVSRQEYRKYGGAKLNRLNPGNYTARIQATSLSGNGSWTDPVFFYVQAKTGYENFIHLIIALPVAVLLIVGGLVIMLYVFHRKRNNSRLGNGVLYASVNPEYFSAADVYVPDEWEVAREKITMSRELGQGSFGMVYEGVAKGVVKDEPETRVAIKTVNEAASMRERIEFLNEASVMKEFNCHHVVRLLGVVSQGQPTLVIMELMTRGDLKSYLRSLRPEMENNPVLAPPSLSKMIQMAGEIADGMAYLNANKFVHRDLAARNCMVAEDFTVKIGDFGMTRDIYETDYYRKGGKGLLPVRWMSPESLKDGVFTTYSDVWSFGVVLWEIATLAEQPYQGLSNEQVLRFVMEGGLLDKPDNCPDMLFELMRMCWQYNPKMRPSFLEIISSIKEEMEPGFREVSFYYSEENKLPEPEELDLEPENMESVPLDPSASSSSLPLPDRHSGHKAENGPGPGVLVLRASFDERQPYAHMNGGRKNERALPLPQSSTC
row,SMILES,IC50 [nM]
1,"COc1cc(CC(=O)N2CCNCC2)ccc1Nc1ncc(Cl)c(-c2cnc3ccccn23)n1 [Example 34, 2-[4-[(5-chloro-4-imidazo[1,2-a]pyridin-3-yl-pyrimidin-2-yl)amino]-3-methoxy-phenyl]-1-piperazin-1-yl-ethanone]",98
2,"COc1cc(C2CCN(C(=O)[C@@H](C)O)CC2)ccc1Nc1ncc(Cl)c(-c2cnn3ccccc23)n1 [Example 138, (2R)-1-[4-[4-[(5-chloro-4-pyrazolo[1,5-a]pyridin-3-yl-pyrimidin-2-yl)amino]-3-methoxy-phenyl]-1-piperidyl]-2-hydroxy-propan-1-one]",3
3,"COc1cc(OC2CN(C(=O)N(C)CCO)C2)ccc1Nc1ncc(Cl)c(-c2cnc3ccccn23)n1 [Example 68, 3-[4-[(5-chloro-4-imidazo[1,2-a]pyridin-3-yl-pyrimidin-2-yl)amino]-3-methoxy-phenoxy]-N-(2-hydroxyethyl)-N-methyl-azetidine-1-carboxamide]",24
4,"COc1ccc(N2CC3CNCC(C2)O3)cc1Nc1ncc(Cl)c(-c2cnc3c(F)cccn23)n1 [Example 192, 5-chloro-4-(8-fluoroimidazo[1,2-a]pyridin-3-yl)-N-[2-methoxy-5-(9-oxa-3,7-diazabicyclo[3.3.1]nonan-7-yl)phenyl]pyrimidin-2-amine]",530
5,"COc1ccc(N2CCNCC2)cc1Nc1ncc(F)c(-c2cnn3ccccc23)n1 [Example 174, 5-fluoro-N-(2-methoxy-5-piperazin-1-yl-phenyl)-4-pyrazolo[1,5-a]pyridin-3-yl-pyrimidin-2-amine]",63
6,"COc1cc(C2CCN(C(C)=O)CC2)ccc1Nc1ncc(Cl)c(-c2cnc3c(F)cccn23)n1 [Example 177, 1-[4-[4-[[5-chloro-4-(8-fluoroimidazo[1,2-a]pyridin-3-yl)pyrimidin-2-yl]amino]-3-methoxy-phenyl]-1-piperidyl]ethanone]",5
7,"COc1cc(OC2CN(CC(C)(C)O)C2)ccc1Nc1ncc(Cl)c(-c2cnc3ccccn23)n1 [Example 63, 1-[3-[4-[(5-chloro-4-imidazo[1,2-a]pyridin-3-yl-pyrimidin-2-yl)amino]-3-methoxy-phenoxy]azetidin-1-yl]-2-methyl-propan-2-ol]",16
8,"COc1cc(C2CCNCC2)ccc1Nc1ncc(C)c(-c2cnc3c(F)cccn23)n1 [Example 197, 4-(8-fluoroimidazo[1,2-a]pyridin-3-yl)-N-[2-methoxy-4-(4-piperidyl)phenyl]-5-methyl-pyrimidin-2-amine]",13
9,"COc1cc(N2CCNCC2)ccc1Nc1ncc(Cl)c(-c2cnc3c(F)cc(F)cn23)n1 [Example 265, 5-chloro-4-(6,8-difluoroimidazo[1,2-a]pyridin-3-yl)-N-(2-methoxy-4-piperazin-1-yl-phenyl)pyrimidin-2-amine]",6
10,"COc1cc(N2CC3CN(CCO)CC(C2)O3)ccc1Nc1ncc(C)c(-c2cnn3ccccc23)n1 [Example 166, 2-[7-[3-methoxy-4-[(5-methyl-4-pyrazolo[1,5-a]pyridin-3-yl-pyrimidin-2-yl)amino]phenyl]-9-oxa-3,7-diazabicyclo[3.3.1]nonan-3-yl]ethanol]",17
11,"COc1cc(N2CCN(CCO)CC2)ccc1Nc1ncc(C#N)c(-c2cnc3ccccn23)n1 [Example 116, 2-[[4-[4-(2-hydroxyethyl)piperazin-1-yl]-2-methoxy-phenyl]amino]-4-imidazo[1,2-a]pyridin-3-yl-pyrimidine-5-carbonitrile]",13
12,"CNCC(=O)N1CCN(c2ccc(OC)c(Nc3ncc(Cl)c(-c4cnc5ccccn45)n3)c2)CC1 [Example 145, 1-[4-[3-[(5-chloro-4-imidazo[1,2-a]pyridin-3-yl-pyrimidin-2-yl)amino]-4-methoxy-phenyl]piperazin-1-yl]-2-(methylamino)ethanone]",59
13,"COc1cc(N2CCN(C(=O)[C@@H](C)N)CC2)ccc1Nc1ncc(Cl)c(-c2cnc3cc(C)ccn23)n1 [Example 254, (2R)-2-amino-1-[4-[4-[[5-chloro-4-(7-methylimidazo[1,2-a]pyridin-3-yl)pyrimidin-2-yl]amino]-3-methoxy-phenyl]piperazin-1-yl]propan-1-one]",5
14,"COc1cc(C2CCNCC2)ccc1Nc1ncc(C)c(-c2cnn3ccccc23)n1 [Example 162, N-[2-methoxy-4-(4-piperidyl)phenyl]-5-methyl-4-pyrazolo[1,5-a]pyridin-3-yl-pyrimidin-2-amine]",2
15,"COc1cc(N2CCN(C(C)(C)CO)CC2)ccc1Nc1ncc(C)c(-c2cnn3ccccc23)n1 [Example 231, 2-[4-[3-methoxy-4-[(5-methyl-4-pyrazolo[1,5-a]pyridin-3-yl-pyrimidin-2-yl)amino]phenyl]piperazin-1-yl]-2-methyl-propan-1-ol]",20
16,"COc1ccc(OC[C@H]2CCCN2C(C)=O)cc1Nc1ncc(Cl)c(-c2cnc3ccccn23)n1 [Example 17, 1-[(2R)-2-[[3-[(5-chloro-4-imidazo[1,2-a]pyridin-3-yl-pyrimidin-2-yl)amino]-4-methoxy-phenoxy]methyl]pyrrolidin-1-yl]ethanone]",58
17,"COc1cc(N2CC3CN(C(=O)[C@H](C)O)CC(C2)O3)ccc1Nc1ncc(Cl)c(-c2cnc3c(F)cccn23)n1 [Example 213, (2S)-1-[3-[4-[[5-chloro-4-(8-fluoroimidazo[1,2-a]pyridin-3-yl)pyrimidin-2-yl]amino]-3-methoxy-phenyl]-9-oxa-3,7-diazabicyclo[3.3.1]nonan-7-yl]-2-hydroxy-propan-1-one]",14
18,"COc1cc(N2CCN(CC(C)(C)O)CC2)ccc1Nc1ncc(C)c(-c2cnc3ccccn23)n1 [Example 106, 1-[4-[4-[(4-imidazo[1,2-a]pyridin-3-yl-5-methyl-pyrimidin-2-yl)amino]-3-methoxy-phenyl]piperazin-1-yl]-2-methyl-propan-2-ol]",28
19,"COc1cc(N2CCN(C(C)=O)CC2)ccc1Nc1ncc(Cl)c(-c2cnc3cc(CN(C)C)ccn23)n1 [Example 185, 1-[4-[4-[[5-chloro-4-[7-(dimethylaminomethyl)imidazo[1,2-a]pyridin-3-yl]pyrimidin-2-yl]amino]-3-methoxy-phenyl]piperazin-1-yl]ethanone]",170
20,"COc1cc(N2CCN(C(C)=O)CC2)ccc1Nc1ncc(C#N)c(-c2cnc3ccccn23)n1 [Example 118, 2-[[4-(4-acetylpiperazin-1-yl)-2-methoxy-phenyl]amino]-4-imidazo[1,2-a]pyridin-3-yl-pyrimidine-5-carbonitrile]",92
21,"COc1cc(C2CCN(C(=O)CO)CC2)ccc1Nc1ncc(C#N)c(-c2cnn3ccccc23)n1 [Example 240, 2-[4-[1-(2-hydroxyacetyl)-4-piperidyl]-2-methoxy-anilino]-4-pyrazolo[1,5-a]pyridin-3-yl-pyrimidine-5-carbonitrile]",3
22,"COc1cc(C2CN(C(C)=O)C2)ccc1Nc1ncc(Cl)c(-c2cnc3ccccn23)n1 [Example 277, 1-[3-[4-[(5-chloro-4-imidazo[1,2-a]pyridin-3-yl-pyrimidin-2-yl)amino]-3-methoxy-phenyl]azetidin-1-yl]ethanone]",16
23,"COc1cc(N2CCN(C(=O)[C@@H](C)O)CC2)ccc1Nc1ncc(Cl)c(-c2cnc3cc(C)ccn23)n1 [Example 257, (2R)-1-[4-[4-[[5-chloro-4-(7-methylimidazo[1,2-a]pyridin-3-yl)pyrimidin-2-yl]amino]-3-methoxy-phenyl]piperazin-1-yl]-2-hydroxy-propan-1-one]",10

# Next, values leading:
row,IC50 [nM],SMILES
1,25,"COc1cc(N2CCCOCC2)ccc1Nc1ncc(Cl)c(-c2cnc3ccccn23)n1 [Example 3.48, 5-chloro-4-imidazo[1,2-a]pyridin-3-yl-N-[2-methoxy-4-(1,4-oxazepan-4-yl)phenyl]pyrimidin-2-amine]"
2,32,"COCCN(C)Cc1ccc(Nc2ncc(Cl)c(-c3cnc4ccccn34)n2)c(OC)c1 [Example 21.13, 5-chloro-4-imidazo[1,2-a]pyridin-3-yl-N-[2-methoxy-4-[(2-methoxyethyl-methyl-amino)methyl]phenyl]pyrimidin-2-amine]"
3,36,"COc1cc(OC2CN(C(=O)[C@H](C)OC)C2)ccc1Nc1ncc(Cl)c(-c2cnc3ccccn23)n1 [Example 27.2, (2S)-1-[3-[4-[(5-chloro-4-imidazo[1,2-a]pyridin-3-yl-pyrimidin-2-yl)amino]-3-methoxy-phenoxy]azetidin-1-yl]-2-methoxy-propan-1-one]"
4,6,"COc1cc(N2CCN(C(=O)[C@@H]3CCCCN3)CC2)ccc1Nc1ncc(Cl)c(-c2cnc3ccccn23)n1 [Example 24.2, [4-[4-[(5-chloro-4-imidazo[1,2-a]pyridin-3-yl-pyrimidin-2-yl)amino]-3-methoxy-phenyl]piperazin-1-yl]-[(2S)-2-piperidyl]methanone]"
5,8,"COc1cc(C2CNC(=O)C2)ccc1Nc1ncc(Cl)c(-c2cnc3ccccn23)n1 (centres unmarked) [Example 3.24, 4-[4-[(5-chloro-4-imidazo[1,2-a]pyridin-3-yl-pyrimidin-2-yl)amino]-3-methoxy-phenyl]pyrrolidin-2-one]"
6,20,"COc1cc(CNCCCO)ccc1Nc1ncc(Cl)c(-c2cnc3ccccn23)n1 [Example 21.3, 3-[[4-[(5-chloro-4-imidazo[1,2-a]pyridin-3-yl-pyrimidin-2-yl)amino]-3-methoxy-phenyl]methylamino]propan-1-ol]"
7,36,"COc1cc(O[C@H]2CCN(C(=O)[C@H](C)O)C2)ccc1Nc1ncc(Cl)c(-c2cnc3ccccn23)n1 [Example 15A, (2S)-1-[(3S)-3-[4-[(5-chloro-4-imidazo[1,2-a]pyridin-3-yl-pyrimidin-2-yl)amino]-3-methoxy-phenoxy]pyrrolidin-1-yl]-2-hydroxy-propan-1-one]"
8,11,"COc1cc(N2CC(C)N(C(C)=O)C(C)C2)ccc1Nc1ncc(Cl)c(-c2cnc3ccccn23)n1 (centres unmarked) [Example 3.31, 1-[4-[4-[(5-chloro-4-imidazo[1,2-a]pyridin-3-yl-pyrimidin-2-yl)amino]-3-methoxy-phenyl]-2,6-dimethyl-piperazin-1-yl]ethanone]"
9,28,"COc1cc(CN2CCC[C@H](O)C2)ccc1Nc1ncc(Cl)c(-c2cnc3ccccn23)n1 [Example 21.17, (3S)-1-[[4-[(5-chloro-4-imidazo[1,2-a]pyridin-3-yl-pyrimidin-2-yl)amino]-3-methoxy-phenyl]methyl]piperidin-3-ol]"
